Legend:
AβMRF [1] = format: cell-based, S. cerevisiae
Aβm1MRF = format: cell-based, S. cerevisiae
Aβm2MRF = format: cell-based, S. cerevisiae
AβMRF [2] = format: cell-based, S. cerevisiae; remark: listed apart in the source
Hsp104 = Hsp104 (Saccharomyces cerevisiae, UniProt P31539); details: cited from earlier work
[3] = target: the molecule itself; assay: SDS electrophoresis (1% SDS, room temperature) and immunoblot of yeast lysates
Hsp104 (yeast chaperone) = Hsp104 (yeast chaperone) (yeast S. cerevisiae, UniProt P31539 1-908); assay: co-immunoprecipitation from yeast lysate with anti-HA agarose beads, immunoblot with anti-Hsp104
Experimental: FIG. 7. […] Co-precipitated proteins were eluted and analyzed by immunoblotting with anti-RF and anti-Hsp104 antibodies.
Following incubation, the beads were washed three times with 0.5 ml of phosphate buffered saline containing 0.05% Tween 20 to remove the non-specifically bound proteins.

[4] = target: the molecule itself; assay: self-oligomerization; SDS electrophoresis and immunoblot of yeast lysates

Hsp104 (yeast chaperone), sequence (P31539 whole entry): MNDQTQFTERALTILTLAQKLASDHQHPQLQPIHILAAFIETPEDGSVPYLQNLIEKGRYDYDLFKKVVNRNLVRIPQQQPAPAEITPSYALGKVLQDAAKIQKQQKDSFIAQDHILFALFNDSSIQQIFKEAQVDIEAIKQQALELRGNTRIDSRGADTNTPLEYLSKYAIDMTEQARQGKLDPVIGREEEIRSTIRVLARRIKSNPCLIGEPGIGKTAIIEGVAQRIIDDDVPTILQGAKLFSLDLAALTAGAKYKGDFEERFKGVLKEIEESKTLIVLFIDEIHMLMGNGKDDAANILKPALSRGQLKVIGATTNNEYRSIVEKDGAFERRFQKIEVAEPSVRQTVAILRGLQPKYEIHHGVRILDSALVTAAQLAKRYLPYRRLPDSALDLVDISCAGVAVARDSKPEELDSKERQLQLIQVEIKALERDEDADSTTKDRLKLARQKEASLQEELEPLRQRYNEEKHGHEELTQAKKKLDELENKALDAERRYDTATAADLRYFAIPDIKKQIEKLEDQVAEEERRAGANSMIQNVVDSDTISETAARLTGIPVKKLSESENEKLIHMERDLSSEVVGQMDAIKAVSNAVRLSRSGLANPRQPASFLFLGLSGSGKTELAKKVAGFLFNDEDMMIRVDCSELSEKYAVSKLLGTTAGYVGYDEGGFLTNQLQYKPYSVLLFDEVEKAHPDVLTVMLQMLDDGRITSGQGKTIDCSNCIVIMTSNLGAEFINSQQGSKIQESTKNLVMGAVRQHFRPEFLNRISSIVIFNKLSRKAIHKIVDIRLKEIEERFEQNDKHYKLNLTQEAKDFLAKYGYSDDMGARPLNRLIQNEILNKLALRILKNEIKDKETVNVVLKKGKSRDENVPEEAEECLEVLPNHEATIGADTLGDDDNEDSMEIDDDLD
Hsp104, sequence (P31539 whole entry): as above

guanidine hydrochloride
amount of AβMRF oligomers (AβMRF [1]): dramatically increased | monomeric pool of AβMRF (AβMRF [1]): depleting the monomeric pool | amount of Aβm1MRF oligomers (Aβm1MRF): dramatically increased | monomeric pool of Aβm1MRF (Aβm1MRF): depleting the monomeric pool | effect on oligomers/monomers of control Aβm2MRF protein (Aβm2MRF): No such effect was detected | oligomerization of AβMRF in the absence of HSP104 (AβMRF [2]): stimulated oligomerization of AβMRF | ATPase activity of Hsp104 (Hsp104): inhibited by millimolar concentrations

B1: MRF (HA-tagged Sup35p without the 123 N-terminal amino acids, plasmid p1366) (other, yeast S. cerevisiae, UniProt P05453 124-253, looked up, not shown: small tags and cut ends)
chain: MSLNDFQKQQKQAAPKPKKTLKLVSSSGIKLANATKKVGTKPAESDKKEEEKSAETKEPTKEPTKVEEPVKKEEKPVQTEEKTEEKSELPKVEDLKISESTHNTNNANVTSADALIKEQEEEVDDEVVNDMFGGKDHVSLIFMGHVDAGKSTMGGNLLYLTGSVDKRTIEKYEREAKDAGRQGWYLSWVMDTNKEERNDGKTIEVGKAYFETEKRRYTILDAPGHKMYVSEMIGGASQADVGVLVISARKGEYETGFERGGQTREHALLAKTQGVNKMVVVVNKMDDPTVNWSKERYDQCVSNVSNFLRAIGYNIKTDVVFMPVSGYSGANLKDHVDPKECPWYTGPTLLEYLDTMNHVDRHINAPFMLPIAAKMKDLGTIVEGKIESGHIKKGQSTLLMPNKTAVEIQNIYNETENEVDMAMCGEQVKLRIKGVEEEDISPGFVLTSPKNPIKSVTKFVAQIAIVELKSIIAAGFSCVMHVHTAIEEVHIVKLLHKLEKGTNRKSKKPPAFAKKGMKVIAVLETEAPVCVETYQDYPQLGRFTLRDQGTTIAIGKIVKIAE
notes: domain: M;domain: RF; also called HA-tagged MRF; Sup35p without the N-terminal prion domain
binding result [3]: no binding | binding result (Hsp104 (yeast chaperone)): no binding

B2: Aβm1MRF (Aβ42 F19,20T MRF, plasmid p1397) (other, yeast S. cerevisiae, not shown: small tags and cut ends)
chain: MDAEFRHDSGYEVHHQKLVTTAEDVGSNKGAIIGLMVGGVVIAMSLNDFQKQQKQAAPKPKKTLKLVSSSGIKLANATKKVGTKPAESDKKEEEKSAETKEPTKEPTKVEEPVKKEEKPVQTEEKTEEKSELPKVEDLKISESTHNTNNANVTSADALIKEQEEEVDDEVVNDMFGGKDHVSLIFMGHVDAGKSTMGGNLLYLTGSVDKRTIEKYEREAKDAGRQGWYLSWVMDTNKEERNDGKTIEVGKAYFETEKRRYTILDAPGHKMYVSEMIGGASQADVGVLVISARKGEYETGFERGGQTREHALLAKTQGVNKMVVVVNKMDDPTVNWSKERYDQCVSNVSNFLRAIGYNIKTDVVFMPVSGYSGANLKDHVDPKECPWYTGPTLLEYLDTMNHVDRHINAPFMLPIAAKMKDLGTIVEGKIESGHIKKGQSTLLMPNKTAVEIQNIYNETENEVDMAMCGEQVKLRIKGVEEEDISPGFVLTSPKNPIKSVTKFVAQIAIVELKSIIAAGFSCVMHVHTAIEEVHIVKLLHKLEKGTNRKSKKPPAFAKKGMKVIAVLETEAPVCVETYQDYPQLGRFTLRDQGTTIAIGKIVKIAE
notes: domain: M;domain: RF; also called Aβ^F19,20TMRF
binding result [4]: binds
